From US7982094B2, “Gene encoding lignan methylation enzyme” (Sunitory Holdings Limited, priority 2006, dated 2011)

Columns and labels:
[1] = tested on: SrOMT1; assay: Assay for COMT activity of SrOMT1 on caffeic acid; format: biochemical, Sesamum radiatum; settings: 0.4 mg/ml caffeic acid, 10 mM SAM, 30° C. for an hour, HPLC and LC-MS; product ferulic acid
Method: (§1) The methyltransferase activity of SiOMT1 and SrOMT1 expressed in EXAMPLES 5 and 7 on caffeic acid was studied. In a reaction tube, 10 μl of 0.4 mg/ml caffeic acid, 200 μl of the crude enzyme solution of SiOMT expressed in Escherichia coli and 10 μl of 10 mM SAM were mixed, and the mixture was reacted at 30° C. for an hour.

[2] = tested on: SiOMT1; assay: Assay for COMT activity of SiOMT1 on caffeic acid; format: biochemical, Sesamum indicum; settings: 0.4 mg/ml caffeic acid, 10 mM SAM, 30° C. for an hour, HPLC and LC-MS; product ferulic acid
Method: as §1

[3] = tested on: SrOMT1; assay: Lignan methylation activity assay of recombinant SrOMT1 (crude enzyme from E. coli, SAM, HPLC of products); format: biochemical, Sesamum radiatum; settings: as in EXAMPLE 6: 10 mM SAM, 30° C. for 2 hours
[4] = tested on: SiOMT2; assay: Lignan methylation activity assay of recombinant SiOMT2 (crude enzyme from E. coli, SAM, HPLC of products); format: biochemical, Sesamum indicum; settings: substrate solution 1 mg/ml, 10 mM SAM, 30° C. for 2 hours, HPLC at 280 nm
Method: (§2) Sesame lignan used as a substrate for the enzyme reaction was dissolved in a small quantity of DMSO and then in 70% ethanol to prepare the substrate solution (1 mg/ml). Sesame lignan can be produced, for example, by extracting and purifying from sesame in accordance with publicly known methods (J. Bioscience, Biotechnology and Biochemistry, 67: 1693 (1993)). After 10 μl of the substrate solution, 200 μl of the aforesaid crude enzyme solution of SiOMT expressed in Escherichia coli and 10 μl of 10 mM S-adenosyl-L-methionine (SAM) were mixed in a reaction tube, the mixture was reacted at 30° C. for 2 hours.
The enzyme reaction was terminated by adding 100% acetonitrile (250 μl) containing 0.1% trifluoroacetic acid (TFA) to the reaction tube. […] The resulting supernatant was washed through a filter (pore size of […], 4 mm Millex-LH, Millipore) and then analyzed using high performance liquid chromatography (hereinafter HPLC). […]
Liquid chromatography (Lc-2010c, Shimadzu Corporation) was performed using a C-30 column (Nomura Chemical, C30-UG-5, […]). […] Absorption was monitored at 280 nm to detect the compounds contained in a sample. The spectra between 190 nm and 400 nm for each peak of the compounds were measured using SPD-10AV (Shimadzu Corporation) to detect substances having two absorption maxima (230 nm and 280 nm) characteristic of lignans. […]

[5] = tested on: SiOMT1; assay: Lignan methylation activity assay of recombinant SiOMT1 (crude enzyme from E. coli, SAM, HPLC/LC-MS of products); format: biochemical, Sesamum indicum; settings: substrate solution 1 mg/ml, 10 mM SAM, 30° C. for 2 hours, HPLC at 280 nm
Method: as §2
The enzyme reaction was terminated by adding 100% acetonitrile (250 μl) containing 0.1% trifluoroacetic acid (TFA) to the reaction tube. The reaction tube was vigorously agitated with a vortex mixer, followed by centrifugation at 15,000 rpm at 4° C. for 5 minutes. The resulting supernatant was washed through a filter (pore size of […], 4 mm Millex-LH, Millipore) and then analyzed using high performance liquid chromatography (hereinafter HPLC). The conditions for the analysis of lignans and methylated lignans are as follows.
Liquid chromatography (Lc-2010c, Shimadzu Corporation) was performed using a C-30 column (Nomura Chemical, C30-UG-5, […]). […] Absorption was monitored at 280 nm to detect the compounds contained in a sample. The spectra between 190 nm and 400 nm for each peak of the compounds were measured using SPD-10AV (Shimadzu Corporation) to detect substances having two absorption maxima (230 nm and 280 nm) characteristic of lignans. Under the conditions, authentic pinoresinol is detected at about 11.8 minutes, authentic piperitol at about 15.5 minutes and authentic sesaminol at about 16.8 minutes.
Next, the molecular weight of the novel lignan produced with SiOMT1 was determined by the LC-MS analysis (liquid chromatography (LC): Waters 2795 (Waters Inc.), mass spectrograph: QUATRO micro (MICROMASS, Inc.)). […]
Under the conditions, peak A is detected at about 8.3 minutes and peak B at about 11.3 minutes (FIGS. 3-5). […]

| methyltransferase (COMT) activity of SrOMT1 on caffeic acid [1] | methyltransferase (COMT) activity of SiOMT1 on caffeic acid [2] | Molecule | methylation of the substrate by SrOMT1 (lignan methylation activity) [3] | methylation of the substrate by SiOMT2 (lignan methylation activity) [4] | methylation of the substrate by SiOMT1 (lignan methylation activity) [5] |
| --- | --- | --- | --- | --- | --- |
| had the COMT activity | had the COMT activity | O=C(O)/C=C/c1ccc(O)c(O)c1 [caffeic acid] |  |  |  |
|  |  | COc1cc([C@@H]2OC[C@@H]3[C@H]2CO[C@H]3c2ccc3c(c2)OCO3)ccc1O [piperitol] | exhibited the methylation activity | any new product was not detected | having the monomethylation activity |
|  |  | Oc1cc2c(cc1[C@H]1OC[C@H]3[C@@H]1CO[C@@H]3c1ccc3c(c1)OCO3)OCO2 [sesaminol] |  |  | did not show any methylation activity |
|  |  | pinoresinol | exhibited the methylation activity | any new product was not detected | having the monomethylation activity |
